Reference: patent US12336991B2, “Factor XIIA inhibitors” (UNIVERSITY OF LEEDS, priority 2018, dated 2025)

Columns and labels:
Assay type in all cases: biochemical
FXa = FXa (Homo sapiens, UniProt P00742); test: Determination of selectivity: FXa inhibition, chromogenic substrate S2765 assay; conditions: fold selectivity for FXIIa over FXa
Method in brief: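 Human FXa (5 nM) preincubated with compound (top 500 μM, 5% DMSO) 10 min at 37 °C in 50 mM Tris, 137 mM NaCl pH 7.4, then S2765 ([…]) added; A405 kinetics over 3 h at 37 °C. IC50 from initial rates, converted to Ki via Cheng-Prusoff.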

FXIIa = target: T1, FXIIa (Homo sapiens, UniProt P00748); test: Determination of Factor XIIa inhibition, chromogenic substrate S-2302 assay; conditions: human FXIIa alpha
T1 sequence (P00748 373-615 limits assumed): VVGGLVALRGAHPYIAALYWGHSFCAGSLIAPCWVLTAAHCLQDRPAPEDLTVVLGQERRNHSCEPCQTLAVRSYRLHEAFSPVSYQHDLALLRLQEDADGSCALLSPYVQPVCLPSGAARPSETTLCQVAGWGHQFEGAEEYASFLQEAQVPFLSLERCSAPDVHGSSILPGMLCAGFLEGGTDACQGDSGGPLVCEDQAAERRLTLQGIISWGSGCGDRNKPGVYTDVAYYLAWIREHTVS
T1 sequence (P00748 20-372 partner limits assumed): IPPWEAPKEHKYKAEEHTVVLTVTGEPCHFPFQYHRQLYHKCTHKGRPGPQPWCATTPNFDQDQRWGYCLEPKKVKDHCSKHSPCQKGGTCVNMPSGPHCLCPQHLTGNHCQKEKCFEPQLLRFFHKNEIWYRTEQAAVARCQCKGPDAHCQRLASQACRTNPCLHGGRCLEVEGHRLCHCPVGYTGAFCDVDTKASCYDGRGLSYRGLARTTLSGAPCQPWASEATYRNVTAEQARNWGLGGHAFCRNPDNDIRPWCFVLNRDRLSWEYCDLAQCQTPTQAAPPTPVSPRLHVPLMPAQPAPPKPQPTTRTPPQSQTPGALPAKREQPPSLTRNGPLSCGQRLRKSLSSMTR
Method in brief: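 FXIIa (10 nM) preincubated with compound 10 min at 37° C. in 50 mM Tris, 137 mM NaCl pH 7.4, 5% DMSO, top concentration 500 μM, then S-2302 added ([…]). Absorbance at 405 nm read kinetically for 3 h; IC50 from initial rates, converted to Ki by Cheng-Prusoff.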

thrombin = target: T2, thrombin (Homo sapiens, UniProt P00734); test: Determination of selectivity: thrombin inhibition, chromogenic substrate GPR assay; conditions: fold selectivity for FXIIa over thrombin
T2 construct: FXa (5 nM) and thrombin (5 nM)
Method in brief: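 Thrombin (5 nM) preincubated with compound 10 min at 37 °C in 50 mM Tris, 137 mM NaCl, pH 7.4, 5% DMSO, then GPR substrate ([…]) added. Absorbance at 405 nm read kinetically for 3 h; IC50 from initial rates, converted to Ki via Ki=IC50/(1+[S]/Km).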

Sequence of FXa (P00742 235-488 limits assumed): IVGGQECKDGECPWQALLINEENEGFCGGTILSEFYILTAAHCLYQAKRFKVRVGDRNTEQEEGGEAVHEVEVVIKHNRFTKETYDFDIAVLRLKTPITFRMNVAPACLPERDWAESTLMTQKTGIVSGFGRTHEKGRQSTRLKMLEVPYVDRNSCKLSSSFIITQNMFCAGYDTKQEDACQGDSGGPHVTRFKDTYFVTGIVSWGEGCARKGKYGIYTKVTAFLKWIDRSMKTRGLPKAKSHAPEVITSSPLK
Sequence of FXa (P00742 41-179 partner limits assumed): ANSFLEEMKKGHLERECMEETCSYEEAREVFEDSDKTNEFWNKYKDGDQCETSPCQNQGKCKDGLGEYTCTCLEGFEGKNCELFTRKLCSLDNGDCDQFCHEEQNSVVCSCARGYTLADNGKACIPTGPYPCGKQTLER

Row | FXa (human)/FXIIa alpha (human) (FXa) | Ki (FXIIa) | Thrombin (human)/FXIIa alpha (human) (thrombin) | SMILES
1 | ∘∘ | > 2 µM | + (fold selectivity values less than 10) | COc1ccc(C[C@@H]2C[C@@H](C(=O)NCc3ccc4c(c3)nnn4C)N(C(=O)[C@H]3CC(c4cnccc4OC)CN3)C2)cc1 (stereo partly drawn) [Example M05410]
2 | ∘∘ | > 2 µM | ++ (fold selectivity value of 10 to 100) | Cn1nnc2cc(CNC(=O)[C@@H]3C[C@@H](Cc4ccc(F)cc4)CN3C(=O)C3C[C@@H](c4ccccc4)CN3)ccc21 (stereo partly drawn) [Example M05324]
3 | ∘∘∘ | 0.2 to 2 µM | ++ (fold selectivity value of 10 to 100) | Cc1ccc(C[C@@H]2C[C@@H](C(=O)NCc3ccc4c(c3)nnn4C)N(C(=O)[C@H]3C[C@@H](c4ccccc4)CN3)C2)cc1 [Example M05328]
4 | ∘∘ | > 2 µM | ++ (fold selectivity value of 10 to 100) | COc1ccc(C[C@@H]2C[C@@H](C(=O)NCc3ccc4c(c3)nnn4C)N(C(=O)[C@H]3CC(c4ccc(C(F)(F)F)cc4)CN3)C2)cc1 (stereo partly drawn) [Example M05345]
5 | ∘∘ | 0.2 to 2 µM | ++ (fold selectivity value of 10 to 100) | Cc1cccc(C[C@@H]2C[C@@H](C(=O)NCc3ccc4c(c3)nnn4C)N(C(=O)[C@H]3C[C@@H](c4ccccc4)CN3)C2)c1 [Example M05359]

More lines, now with the values behind:

Row | SMILES | FXa (human)/FXIIa alpha (human) (FXa) | Ki (FXIIa) | Thrombin (human)/FXIIa alpha (human) (thrombin)
6 | Cc1nn(C)c2ccc(CNC(=O)[C@@H]3C[C@@H](Cc4ccncc4)CN3C(=O)[C@H](N)CCC(=O)N3CCCC3)cc12 [Example M05278] | ∘∘∘ | 0.2 to 2 µM | ++ (fold selectivity value of 10 to 100)
7 | Cn1nnc2cc(CNC(=O)[C@@H]3C[C@H](C(F)(F)F)CN3C(=O)[C@H]3C[C@@H](c4ccccc4)CN3)ccc21 [Example M05280] | ∘∘ | > 2 µM | ++ (fold selectivity value of 10 to 100)
8 | COc1ccc(C[C@@H]2C[C@@H](C(=O)NCc3ccc4c(c3)nnn4C)N(C(=O)[C@H]3C[C@@H](c4ccccc4)CN3C)C2)cc1 [Example M05389, (2S,4R)-4-(4-Methoxy-benzyl)-1-((2R,4S)-1-methyl-4-phenyl-pyrrolidine-2-carbonyl)-pyrrolidine-2-carboxylic acid (1-methyl-1H-benzotriazol-5-ylmethyl)-amide] | ∘∘∘ | 0.2 to 2 µM | +++ (fold selectivity values greater than 100)
9 | COc1ccc(C[C@@H]2C[C@@H](C(=O)NCc3ccc4c(c3)nnn4C)N(C(=O)[C@H](N)CCc3ccccc3)C2)cc1 [Example M05302] | ∘∘∘ | 0.2 to 2 µM | +++ (fold selectivity values greater than 100)
10 | COc1ccc(C[C@@H]2C[C@@H](C(=O)NCc3ccc4c(c3)nnn4C)N(C(=O)[C@H](N)CCC(=O)N3CCCNCC3)C2)cc1 [Example M05461] | ∘∘∘ | < 0.2 µM | +++ (fold selectivity values greater than 100)
11 | COc1ccc(C[C@@H]2C[C@@H](C(=O)NCc3cccs3)N(C(=O)[C@H](N)CCC(=O)N3CCCC3)C2)cc1 [Example M00972] | ∘∘ | 0.2 to 2 µM | ++ (fold selectivity value of 10 to 100)
12 | Cn1nnc2cc(CNC(=O)[C@@H]3CCCN3C(=O)[C@H](N)CCC(=O)N3CCCC3)ccc21 [Example M05308] | ∘∘ | > 2 µM | ++ (fold selectivity value of 10 to 100)
13 | Nc1nccc2cc(CNC(=O)[C@@H]3C[C@H](C(F)(F)F)CN3C(=O)[C@H](N)CCC(=O)N3CCCC3)ccc12 [Example M05265] | ∘ | 0.2 to 2 µM | + (fold selectivity values less than 10)
14 | Cn1nnc2cc(CNC(=O)[C@@H]3C[C@H](NC(=O)CCc4ccccc4)CN3C(=O)[C@H](N)CCc3ccccc3)ccc21 [Example M05195] | ∘∘ | > 2 µM | ++ (fold selectivity value of 10 to 100)
15 | Cn1nnc2cc(CNC(=O)[C@@H]3CC(Cc4ccc(C(F)(F)F)cc4)CN3C(=O)[C@H](N)CCC(=O)N3CCCC3)ccc21 (stereo partly drawn) [Example M05309] | ∘∘∘ | 0.2 to 2 µM | +++ (fold selectivity values greater than 100)
16 | COc1ccc(C[C@@H]2C[C@@H](C(=O)NCc3ccc4c(c3)nnn4C)N(C(=O)C3NCCc4cc(Br)ccc43)C2)cc1 (stereo partly drawn) [Example M05471] | ∘∘ | > 2 µM | ++ (fold selectivity value of 10 to 100)
17 | COc1ccc(C[C@@H]2C[C@@H](C(=O)NCc3ccc4c(c3)nnn4C)N(C(=O)[C@H]3C[C@@H](c4cnn(C)c4)CN3)C2)cc1 [Example M05381] | ∘∘∘ | 0.2 to 2 µM | +++ (fold selectivity values greater than 100)
18 | Cn1nnc2cc(CNC(=O)[C@@H]3C[C@@H](Cc4cccc(-c5ccncc5)c4)CN3C(=O)[C@H](N)CCC(=O)N3CCCC3)ccc21 [Example M05323] | ∘∘∘ | < 0.2 µM | +++ (fold selectivity values greater than 100)
19 | Cn1ccnc1CC1C[C@@H](C(=O)NCc2ccc3c(c2)nnn3C)N(C(=O)[C@H](N)CCC(=O)N2CCCC2)C1 (stereo partly drawn) [Example M05297] | ∘∘∘ | 0.2 to 2 µM | +++ (fold selectivity values greater than 100)
20 | CC(=O)N(Cc1cccnc1)[C@H]1C[C@@H](C(=O)NCc2ccc3c(c2)nnn3C)N(C(=O)[C@H](N)CCc2ccccc2)C1 [Example M05162] | ∘∘ | > 2 µM | ++ (fold selectivity value of 10 to 100)
21 | Cn1nnc2cc(CNC(=O)[C@@H]3C[C@H](Cc4cccc(Cl)c4)CN3C(=O)[C@H](N)CCC(=O)N3CCCC3)ccc21 [Example M05210, (2S,4S)-1-((R)-2-amino-5-oxo-5-pyrrolidin-1-yl-pentanoyl)-4-(3-chloro-benzyl)-pyrrolidine-2-carboxylic acid (1-methyl-1H-benzotriazol-5-ylmethyl)-amide] | ∘∘∘ | 0.2 to 2 µM | +++ (fold selectivity values greater than 100)
22 | COc1ccc(C[C@@H]2C[C@@H](C(=O)NCc3ccc4c(c3)nnn4C)N(C(=O)[C@H](N)CCC(=O)N3CCNC[C@@H]3C)C2)cc1 [Example M05417, (2S,4R)-1-[(R)-2-amino-5-((S)-2-methyl-piperazin-1-yl)-5-oxo-pentanoyl]-4-(4-methoxy-benzyl)-pyrrolidine-2-carboxylic acid (1-methyl-1H-benzotriazol-5-ylmethyl)-amide] | ∘∘∘ | 0.2 to 2 µM | +++ (fold selectivity values greater than 100)
23 | Cn1nnc2cc(CNC(=O)[C@@H]3C[C@@H](Cc4ccccc4C(F)(F)F)CN3C(=O)[C@H]3C[C@@H](c4ccccc4)CN3)ccc21 [Example M05357] | ∘∘ | > 2 µM | ++ (fold selectivity value of 10 to 100)
24 | COc1ccc(C[C@@H]2C[C@@H](C(=O)NCc3ccc4c(c3)nnn4C)N(C(=O)[C@H]3CC(c4cccnc4C)CN3)C2)cc1 (stereo partly drawn) [Example M05406] | ∘∘∘ | 0.2 to 2 µM | +++ (fold selectivity values greater than 100)
25 | COc1ccc(C[C@@H]2C[C@@H](C(=O)NCc3ccc4c(c3)nnn4C)N(C(=O)[C@H]3C[C@@H](c4ccccc4)CN3)C2)cc1Cl [Example M05339] | ∘∘∘ | 0.2 to 2 µM | +++ (fold selectivity values greater than 100)
26 | Cn1nnc2cc(CNC(=O)[C@@H]3C[C@@H](Cc4ccc(C(F)(F)F)cc4)CN3C(=O)[C@H](N)CCC(=O)N3CCCC3)ccc21 [Example M05336] | ∘∘∘ | < 0.2 µM | +++ (fold selectivity values greater than 100)
27 | Nc1nccc2cc(CNC(=O)[C@@H]3CCCN3C(=O)[C@H](N)CCc3ccccc3)ccc12 [Example M05237] | ∘∘ | 0.2 to 2 µM | + (fold selectivity values less than 10)
